Measurements taken from patent US20140073801A1, “PYRROLIDINE DERIVATIVES AS SELECTIVE GLYCOSIDASE INHIBITORS AND USES THEREOF” (Summit Corporation Plc, priority 2011, published 2014).

Assays:
[1] = tested on: human β-hexosaminidase [human placenta] (HexA/B); test: Determination of IC50 values for inhibition of human β-hexosaminidase; assay type: biochemical; details: ratio
Outline: (§1)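 Inhibitor titrated from 300 μM to 0.003 μM or 100 μM to 0.001 μM. IC50 values come from curve fits, and selectivity is IC50(β-hexosaminidase)/IC50(human OGA).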

[2] = target: T1, human β-hexosaminidase [human placenta] (HexA/B); test: as above; assay type: biochemical; details: human β-hexosaminidase, human placenta; room temperature, thirty minutes
T1 construct: other: human β-hexosaminidase, human placenta; room temperature, thirty minutes
Outline: as §1

human OGA [3] = target: T2, human OGA (Homo sapiens, UniProt O60502); test: Determination of IC50 values for inhibition of human OGA; assay type: biochemical
T2 construct: made in house
T2 sequence (O60502 1-916): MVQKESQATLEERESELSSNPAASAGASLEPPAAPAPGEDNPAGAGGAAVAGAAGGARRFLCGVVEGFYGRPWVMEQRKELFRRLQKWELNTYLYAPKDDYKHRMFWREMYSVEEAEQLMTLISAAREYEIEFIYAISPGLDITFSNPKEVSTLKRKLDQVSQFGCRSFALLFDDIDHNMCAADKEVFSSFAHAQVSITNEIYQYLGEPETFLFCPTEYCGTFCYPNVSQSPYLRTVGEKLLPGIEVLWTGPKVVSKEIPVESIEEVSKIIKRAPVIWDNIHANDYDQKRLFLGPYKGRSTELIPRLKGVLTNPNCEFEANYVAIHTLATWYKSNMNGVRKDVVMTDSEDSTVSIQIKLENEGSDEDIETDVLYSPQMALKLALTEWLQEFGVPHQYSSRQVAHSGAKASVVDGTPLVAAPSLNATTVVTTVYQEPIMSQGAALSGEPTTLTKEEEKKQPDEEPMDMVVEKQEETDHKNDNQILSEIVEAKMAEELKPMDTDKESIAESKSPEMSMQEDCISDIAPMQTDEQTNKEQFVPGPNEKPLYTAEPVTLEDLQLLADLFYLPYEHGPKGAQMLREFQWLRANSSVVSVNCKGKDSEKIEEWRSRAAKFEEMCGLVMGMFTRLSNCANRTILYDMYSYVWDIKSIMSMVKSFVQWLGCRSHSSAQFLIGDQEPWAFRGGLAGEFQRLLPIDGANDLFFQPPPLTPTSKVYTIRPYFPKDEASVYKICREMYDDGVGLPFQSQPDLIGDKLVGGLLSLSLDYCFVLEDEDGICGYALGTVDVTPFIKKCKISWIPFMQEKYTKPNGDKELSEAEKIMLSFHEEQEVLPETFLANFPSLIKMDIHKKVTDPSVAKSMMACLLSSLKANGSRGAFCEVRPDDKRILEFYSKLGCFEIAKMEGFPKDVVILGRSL
Procedure: Inhibitors identified from the screen described in Example 1 were evaluated for IC50 using a procedure adapted from Biochem. J. 2009, 420, 221-227. IC50 determination was carried out using a range of inhibitor concentrations from 300 μM to 0.003 μM or 100 μM to 0.001 μM. IC50 values were calculated using XLFit 4.

human OGA (hOGA) = target: T3, human OGA (hOGA) (Homo sapiens, UniProt O60502); test: Screening of inhibitor library against human OGA (single point, triplicate); assay type: biochemical; details: 100 μM inhibitor concentration
T3 construct: made in house
T3 sequence (O60502 1-916): T2 sequence (O60502 1-916)
Procedure: Expressed and purified human OGA (hOGA) was screened against a library of compounds (compounds stored in 100% DMSO at a concentration of 10 mM) according to a procedure modified from that detailed in Biochem. J. 2009, 420, 221-227 and using the reaction reagents set out in the Table (below). The modification to the published protocol was that an emission wavelength of 450 nm was used rather than […]. Assays were run at singlepoint in triplicate. Inhibitors for further evaluation were selected based on an average observed inhibition greater than 50%.

[4] = tested on: O-GlcNAc modified proteins in PC-12 cells or SH-SY5Y cells; test: Western blot analyses of O-GlcNAc modified proteins in cells; assay type: cell-based; details: for EC50: western blot, cells dosed 4 hours at 37° C., cell line not given
Procedure: PC-12 cells or SH-SY5Y cells were dosed with the test compound or vehicle control at 37° C. for 4 hours. Once the incubation was completed the media was removed and cells were lysed. Extracted protein was then used for Western blot analysis using standard molecular biology techniques. The resulting membrane was probed with antibodies specific for tau phosphorylation sites (pSer396, pSer422, pThr231, pSer262) or with antibodies specific for O-GlcNAcylation sites (RL-2 or CTD110.6). The primary antibodies were visualised using appropriate secondary conjugated with the fluorophores Alexa 532 or Alexa 488. Actin was visualised using a FITC conjugated primary antibody. Relative quantification was measured in relation to the actin signal using Image lab software (BRL). Marked increases in O-GlcNAcylated proteins within the cells were observed as compared to controls when cells were dosed with test compound.

human OGA [5] = target: T2, human OGA; test: Determination of Ki values for inhibition of human OGA (4MU-GlcNAc substrate); assay type: biochemical; details: 2 nM human OGA, McIlvaine buffer pH 7.4, one hour
Procedure: Enzymatic reactions were carried out in McIlvaine buffer (0.2M Na2PO4, 0.1M citric acid; pH 7.4) using 2 nM human OGA and 4MU-GlcNAc as substrate in the presence of inhibitor. For the Ki of AXX inhibitor concentrations were 0, 20, 40, 80, 160 and 320 nM [for the Ki determination of other compounds either the same concentrations or similar concentrations were used] and 4MU-GlcNAc concentrations were 50, 100, 200, 400, 800, 1600, and 3200 μM. Reactions were left for one hour. […] Modes of inhibition were determined by Lineweaver-Burke analysis and Ki values were determined using GraphPad 5 Prism non-linear regression analysis.

| SMILES | Selectivity: IC50(human β-hexosaminidase)/IC50(Human OGA) [1] | IC50 [2] [nM] | IC50 (human OGA [3]) [nM] | inhibition at 100 µM (human OGA (hOGA)) [%] | cellular levels of O-GlcNAc modified proteins relative to vehicle (FIG. 2) ([4]; SH-SY5Y cells, 4 hours) | EC50 [4] [nM] | Ki (human OGA [5]) [nM] | cellular levels of O-GlcNAc modified proteins relative to vehicle (FIG. 1) ([4]; SH-SY5Y cells, 4 hours, varying concentrations) |
| --- | --- | --- | --- | --- | --- | --- | --- | --- |
| CCCCNC(=O)C[C@H]1N[C@H](CO)[C@@H](O)[C@H]1O [Compound A002, N-butyl-2-((2R,3S,4R,5R)-3,4-dihydroxy-5-(hydroxymethyl)pyrrolidin-2-yl)acetamide] | >4 | > 300000 | 75000 | 52.8 | – | – | – | – |
| CNC(=O)C[C@@H]1[C@H](O)[C@H](O)[C@@H](CO)N1CCCCC(C)C [Compound A021, 2-((2R,3S,4R,5R)-3,4-dihydroxy-5-(hydroxymethyl)-1-(5-methylhexyl)pyrrolidin-2-yl)-N-methylacetamide] | >37037 | > 300000 | 8 | – | increase | 604 | 41 | – |
| CCCCCCCCCN1[C@H](CC(=O)NCCCC)[C@H](O)[C@H](O)[C@H]1CO [Compound A001, N-butyl-2-((2R,3S,4R,5R)-3,4-dihydroxy-5-(hydroxymethyl)-1-nonylpyrrolidin-2-yl)acetamide] | >5 | > 300000 | 58000 | 89.6 | – | – | – | – |
| CCCNC(=O)C[C@@H]1[C@H](O)[C@H](O)[C@@H](CO)N1CCCCc1ccccc1 [Compound A022, 2-((2R,3S,4R,5R)-3,4-dihydroxy-5-(hydroxymethyl)-1-(4-phenylbutyl)pyrrolidin-2-yl)-N-propylacetamide] | >28571 | > 300000 | 11 | – | – | 1230 | 72 | – |
| CCCCNC(=O)C[C@@H]1[C@H](O)[C@H](O)[C@@H](CO)N1CCCCCCCCCO [Compound A003, N-butyl-2-((2R,3S,4R,5R)-3,4-dihydroxy-5-(hydroxymethyl)-1-(9-hydroxynonyl)pyrrolidin-2-yl)acetamide] | >4 | > 300000 | 74600 | 82.8 | – | – | – | – |
| CNC(=O)C[C@@H]1[C@H](O)[C@H](O)[C@@H](CO)N1CCCc1ccccc1 [Compound A016, 2-((2R,3S,4R,5R)-3,4-dihydroxy-5-(hydroxymethyl)-1-(3-phenylpropyl)pyrrolidin-2-yl)-N-methylacetamide] | >18000 | 54000 | < 3 | – | increase | 255 | 11 | – |
| CCNC(=O)C[C@@H]1[C@@H](O)[C@H](O)[C@@H](CO)N1CCCc1ccc(OC)cc1 [Compound A060, 2-((2R,3R,4R,5R)-3,4-dihydroxy-5-(hydroxymethyl)-1-(3-(4-methoxyphenyl)propyl)pyrrolidin-2-yl)-N-ethylacetamide] | >27272 | > 300000 | 11 | – | – | 263 | 167 | – |
| CCCCCCN1[C@H](CC(=O)NC)[C@H](O)[C@H](O)[C@H]1CO [Compound A012, 2-((2R,3S,4R,5R)-1-hexyl-3,4-dihydroxy-5-(hydroxymethyl)pyrrolidin-2-yl)-N-methylacetamide] | >6085 | > 300000 | 49 | – | increase | 656 | 70 | increase |
